# Experimental data from patent US6812028B1, “Embryogenesis and plant regeneration from microspores” (University of Guelph, priority 1999, dated 2004).
# Columns and labels:
# [1] = system: microspores of spring wheat genotypes Chris and Pavon 79; experiment: AGP effect on embryo development from microspores, 0.8 ml drop on solid MMS4 with 3-4 ovaries; format: cell-based; conditions: for avg. # embryos: genotype Chris, 5 reps; for # embryos: genotype Pavon 79, 3 reps
# Method: The effect of AGP on microspore embryogenesis in the presence of ovary co-culture was assessed using Chris and Pavon 79 wheat genotypes. Media comprising 5 mg/liter and 10 mg/liter of AGP were compared with a control medium, on microspore embryogenesis in the presence of ovary co-culture. The results in Table 9 indicate that overall response of Chris to AGP is higher than the response of Pavon 79.
# [2] = system: barley cv Igri isolated microspores; experiment: AGP effect on barley isolated microspore development in liquid FHG medium; format: cell-based; conditions: after 10 days
# Excerpt: The effect of AGP concentration during embryogenic induction of barley microspores in culture was examined. A wide range of concentrations was applied to microspores […]. The AGP addition was effected by adding varying AGP concentrations in liquid FHG medium with 10^5 microspores onto solid FGH medium. Using a drop of microspores on solidified MFHG medium, structures were counted under an inverted microscope. The proportion of alive and dead microspores was not estimated in these plates, but the developing microspores were much higher in the 0 mg control compared to wheat. Thus, the difference in response of barley to AGP at day 10 is not as pronounced as in wheat.
substance,measurement,setting,value
arabinogalactan protein [AGP],avg. # embryos,[1]; AGP 5 mg/L,5618
same,# embryos,[1]; AGP 5 mg/L,4155
same,avg. # embryos,[1]; AGP 10 mg/L,9836
same,# embryos,[1]; AGP 10 mg/L,4681
same,Dividing within microspore,[2]; AGP 2 mg/L,39600
same,Free Multicellulars,[2]; AGP 2 mg/L,33550
same,Total Developing,[2]; AGP 2 mg/L,73150
same,Dividing within microspore,[2]; AGP 5 mg/L,43000
same,Free Multicellulars,[2]; AGP 5 mg/L,38230
same,Total Developing,[2]; AGP 5 mg/L,81230
same,Dividing within microspore,[2]; AGP 10 mg/L,45280
same,Free Multicellulars,[2]; AGP 10 mg/L,35750
same,Total Developing,[2]; AGP 10 mg/L,81030
same,Dividing within microspore,[2]; AGP 25 mg/L,39880
same,Free Multicellulars,[2]; AGP 25 mg/L,36030
same,Total Developing,[2]; AGP 25 mg/L,75910
same,Dividing within microspore,[2]; AGP 50 mg/L,37120
same,Free Multicellulars,[2]; AGP 50 mg/L,39880
same,Total Developing,[2]; AGP 50 mg/L,77000
same,Dividing within microspore,[2]; AGP 100 mg/L,42900
same,Free Multicellulars,[2]; AGP 100 mg/L,37730
same,Total Developing,[2]; AGP 100 mg/L,80630
same,Dividing within microspore,[2]; AGP 500 mg/L,35890
same,Free Multicellulars,[2]; AGP 500 mg/L,37810
same,Total Developing,[2]; AGP 500 mg/L,73700
same,Dividing within microspore,[2]; AGP 1000 mg/L,38500
same,Free Multicellulars,[2]; AGP 1000 mg/L,41600
same,Total Developing,[2]; AGP 1000 mg/L,80100
